Test results taken from ChEMBL document CHEMBL1201862, “PubChem BioAssay data set” (2004).
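Where inhibition never reached the appropriate level, the endpoint shown equals the highest concentration tested. Otherwise, values were interpolated linearly from a five-concentration, 48-hour dose response in 96-well plates. Here, GI50 denotes the concentration required for 50% inhibition of growth.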 The source made the active and inactive calls. Rule as the data show it: active = GI50 up to about 1.1 µM and inactive = higher.

Assays:
Assay in all cases: NCI-60 cell line screen, 48 h
[1] = system: 786-0
[2] = system: A498
[3] = system: ACHN
[4] = system: HCT-116
[5] = system: HOP-92
[6] = system: HT-29
[7] = system: KM12
[8] = system: LOX IMVI
[9] = system: MDA-MB-231
[10] = system: MDA-MB-435
[11] = system: MOLT-4
[12] = system: NCI-H460
[13] = system: NCI-H522
[14] = system: NCI/ADR-RES
[15] = system: SF-268
[16] = system: SK-MEL-28
[17] = system: U-251
[18] = system: K562
[19] = system: M14
[20] = system: SR

Row | SMILES | GI50 [1] | GI50 [2] | GI50 [3] | GI50 [4] | GI50 [5] | GI50 [6] | GI50 [7] | GI50 [8] | GI50 [9] | GI50 [10] | GI50 [11] | GI50 [12] | GI50 [13] | GI50 [14] | GI50 [15] | GI50 [16] | GI50 [17] | GI50 [18] | GI50 [19] | GI50 [20]
1 | N#Cc1c(-c2ccccc2)cc(Nc2cccc(C(F)(F)F)c2)n2c1nc1ccccc12 | 1.54 µM (inactive) | 1.64 µM (inactive) | 1.88 µM (inactive) | 0.471 µM (active) | 0.206 µM (active) | 1.16 µM (inactive) | 2.17 µM (inactive) | 1.2 µM (inactive) | 1.71 µM (inactive) | 2.01 µM (inactive) | 0.76 µM (active) | 0.766 µM (active) | 0.245 µM (active) | 1.33 µM (inactive) | 1.29 µM (inactive) | 9.12 µM (inactive) | 0.611 µM (active) | – | – | –
2 | NNC(=O)c1nnn(N)c1S | 93.8 µM (inactive) | > 100 µM (inactive) | > 100 µM (inactive) | > 100 µM (inactive) | – | > 100 µM (inactive) | 13.5 µM (inactive) | 79.6 µM (inactive) | 45.4 µM (inactive) | > 100 µM (inactive) | > 100 µM (inactive) | > 100 µM (inactive) | > 100 µM (inactive) | > 100 µM (inactive) | > 100 µM (inactive) | > 100 µM (inactive) | > 100 µM (inactive) | 36.8 µM (inactive) | > 100 µM (inactive) | –
3 | COc1cc([N+](=O)[O-])c(OC)c2c(Nc3ccc(S(=O)(=O)O)c4cc(S(=O)(=O)O)cc(S(=O)(=O)O)c34)cc(C)nc12 | > 100 µM (inactive) | > 100 µM (inactive) | – | > 100 µM (inactive) | – | > 100 µM (inactive) | > 100 µM (inactive) | > 100 µM (inactive) | > 100 µM (inactive) | > 100 µM (inactive) | > 100 µM (inactive) | – | > 100 µM (inactive) | > 100 µM (inactive) | > 100 µM (inactive) | > 100 µM (inactive) | > 100 µM (inactive) | – | > 100 µM (inactive) | –
4 | NCCC(=O)N[C@H](Cc1cc(O)c(O)c(SCC(NC(=O)CC[C@H](N)C(=O)O)C(=O)NCC(=O)O)c1)C(=O)O (stereo partly specified) | > 50 µM (inactive) | > 50 µM (inactive) | > 50 µM (inactive) | > 50 µM (inactive) | > 50 µM (inactive) | > 50 µM (inactive) | > 50 µM (inactive) | – | > 50 µM (inactive) | > 50 µM (inactive) | – | > 50 µM (inactive) | > 50 µM (inactive) | > 50 µM (inactive) | > 50 µM (inactive) | > 50 µM (inactive) | > 50 µM (inactive) | > 50 µM (inactive) | > 50 µM (inactive) | –
5 | C[C@]12CC[C@H](O)CC1=CC[C@@H]1C2CC[C@]2(C)C(=O)NC(=O)CC12 (stereo partly specified) | 55.5 µM (inactive) | > 100 µM (inactive) | > 100 µM (inactive) | 53.7 µM (inactive) | > 100 µM (inactive) | 82.2 µM (inactive) | 35.5 µM (inactive) | 65.9 µM (inactive) | – | – | 30.6 µM (inactive) | 48.6 µM (inactive) | 63 µM (inactive) | – | 65.9 µM (inactive) | > 100 µM (inactive) | > 100 µM (inactive) | 29 µM (inactive) | > 100 µM (inactive) | 37.2 µM (inactive)
6 | Cc1ccc(S(=O)OC23CC4CC(CC(C4)C2)C3)cc1 (stereo unspecified) | > 100 µM (inactive) | > 100 µM (inactive) | > 100 µM (inactive) | > 100 µM (inactive) | > 100 µM (inactive) | > 100 µM (inactive) | > 100 µM (inactive) | 39.2 µM (inactive) | – | – | 29.9 µM (inactive) | > 100 µM (inactive) | 30.5 µM (inactive) | – | 86.1 µM (inactive) | > 100 µM (inactive) | 36.8 µM (inactive) | > 100 µM (inactive) | > 100 µM (inactive) | 35.7 µM (inactive)
7 | COc1cc(/C=C2\CCC(C)C3=C2NC(=S)NC3c2cc(OC)c(OC)c(OC)c2)cc(OC)c1OC (stereo unspecified) | 83.9 µM (inactive) | 53 µM (inactive) | 92.7 µM (inactive) | 49 µM (inactive) | > 100 µM (inactive) | 60.1 µM (inactive) | 32.3 µM (inactive) | 53.2 µM (inactive) | 34.5 µM (inactive) | 38.2 µM (inactive) | 24 µM (inactive) | – | – | – | 73.6 µM (inactive) | 30.4 µM (inactive) | 46.8 µM (inactive) | 26.1 µM (inactive) | 60.3 µM (inactive) | 25.2 µM (inactive)
8 | CC1(Cc2cc3c(cc2C2(c4ccc([N+](=O)[O-])cc4)OCCO2)OCO3)OCCO1 | > 100 µM (inactive) | > 100 µM (inactive) | 93.3 µM (inactive) | > 100 µM (inactive) | – | > 100 µM (inactive) | 72.3 µM (inactive) | > 100 µM (inactive) | 52.6 µM (inactive) | 98.2 µM (inactive) | 32.7 µM (inactive) | 59.8 µM (inactive) | 24.7 µM (inactive) | 87.9 µM (inactive) | > 100 µM (inactive) | > 100 µM (inactive) | 71.3 µM (inactive) | 61.9 µM (inactive) | > 100 µM (inactive) | –
